Source: patent US12692262B2, “Substituted ureas as orexin receptor agonists” (Merck Sharp & Dohme LLC, priority 2020, dated 2026)

Target: T1, human OX2R (Homo sapiens, UniProt O43614)
T1 construct: expressed in transfected cells; host or cells: CHO (Chinese hamster ovary) cells grown under G418 selection
T1 sequence (O43614 1-444): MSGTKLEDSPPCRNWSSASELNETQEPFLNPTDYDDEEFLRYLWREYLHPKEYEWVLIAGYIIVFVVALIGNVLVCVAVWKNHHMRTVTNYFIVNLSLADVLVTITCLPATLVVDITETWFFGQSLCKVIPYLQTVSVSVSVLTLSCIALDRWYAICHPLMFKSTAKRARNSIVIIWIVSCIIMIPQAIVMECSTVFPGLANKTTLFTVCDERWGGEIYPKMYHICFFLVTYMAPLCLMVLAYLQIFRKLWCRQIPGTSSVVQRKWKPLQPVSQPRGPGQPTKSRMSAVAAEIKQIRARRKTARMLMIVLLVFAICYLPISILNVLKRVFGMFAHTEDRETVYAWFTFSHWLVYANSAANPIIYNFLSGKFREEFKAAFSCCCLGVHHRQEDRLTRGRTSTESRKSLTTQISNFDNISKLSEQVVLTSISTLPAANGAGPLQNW
Assay: IPOne (IP-1 accumulation) assay in CHO cells expressing human OX2R
Type: cell-based
Settings: for EC50: CHO cells expressing human OX2R, IP-One assay, 2 h incubation, four parameter logistic fit, read-out: OX2R Potency, EC50; for % of maximum agonist effect (relative to Orexin A): percent effect vs mean max effect of a reference compound at 1 uM (100% activity vs Orexin A), human OX2R
Procedure, shortened: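 CHO cells stably expressing human OX2R, grown in Iscove's modified DMEM with 10% FBS; agonist-driven IP-1 accumulation via the Gαq pathway measured by HTRF (D2/AB-cryptate detection after lysis). EC50 taken as the inflection point of a four-parameter logistic fit.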

SMILES	EC50 [nM]	% of maximum agonist effect (relative to Orexin A) [%]
CCN(C(=O)N[C@@H](CCC(F)(F)F)C(F)(F)F)[C@H](C)c1cccc(-c2cc(OC)c3ncc(Cl)n3c2Cl)c1 [Example 8-14, 1-((R)-1-(3-(3,5-dichloro-8-methoxyimidazo[1,2-a]pyridin-6-yl)phenyl)ethyl)-1-ethyl-3-((S)-1,1,1,5,5,5-hexafluoropentan-2-yl)urea]	109	100.1
CCN(C(=O)N[C@@H](CCC(F)(F)F)C(F)(F)F)[C@H](C)c1cccc(-c2cc(OC)c3nc(C(F)(F)F)cn3c2)c1 [Example 27, 1-ethyl-3-((S)-1,1,1,5,5,5-hexafluoropentan-2-yl)-1-((R)-1-(3-(8-methoxy-2-(trifluoromethyl)imidazo[1,2-a]pyridin-6-yl)phenyl)ethyl)urea]	619	98.5
C=Cc1ccc([C@@H](C)N(CC)C(=O)N[C@H](CC)CCC(F)(F)F)cc1-c1ccc2nccn2c1 [Example 19, 1-ethyl-1-((R)-1-(3-(imidazo[1,2-a]pyridin-6-yl)-4-vinylphenyl)ethyl)-3-((R)-6,6,6-trifluorohexan-3-yl)urea]	23.2	94.9
CCN(C(=O)NC(C#N)C1CCCC1)[C@H](C)c1cccc(-c2cn3ccnc3c(OC)n2)c1 (stereo partly drawn) [Example 1-10, 3-(cyano(cyclopentyl)methyl)-1-ethyl-1-((R)-1-(3-(8-methoxyimidazo[1,2-a]pyrazin-6-yl)phenyl)ethyl)urea]	8.3	101.0
CC[C@H](CCC(F)(F)F)NC(=O)N(CC)[C@H](C)c1cccc(-c2cc3c(c(OC)c2)NCC3)c1 [Example 25, 1-ethyl-1-((R)-1-(3-(7-methoxyindolin-5-yl)phenyl)ethyl)-3-((R)-6,6,6-trifluorohexan-3-yl)urea]	619	98.5
CCCC(C#N)NC(=O)N(CC)[C@H](C)c1cccc(-c2cn3ccnc3c(OC)n2)c1 (stereo partly drawn) [Example 2-37, 3-(1-cyanobutyl)-1-ethyl-1-((R)-1-(3-(8-methoxyimidazo[1,2-a]pyrazin-6-yl)phenyl)ethyl)urea]	20	100.8
CCN(C(=O)N[C@H](C)C1CCC(F)(F)CC1)[C@H](C)c1cccc(-c2cn3ccnc3c(OC)n2)c1 [Example 1-4, 3-((R)-1-(4,4-difluorocyclohexyl)ethyl)-1-ethyl-1-((R)-1-(3-(8-methoxyimidazo[1,2-a]pyrazin-6-yl)phenyl)ethyl)urea]	6.9	96.1
CCN(C(=O)N[C@@H](C(C)(C)C)C(F)(F)F)[C@@H](c1cc(-c2cn3ccnc3c(OC)n2)c(OC)cn1)C(F)(F)F [Example 2-28, 1-ethyl-1-((S)-2,2,2-trifluoro-1-(5-methoxy-4-(8-methoxyimidazo[1,2-a]pyrazin-6-yl)pyridin-2-yl)ethyl)-3-((S)-1,1,1-trifluoro-3,3-dimethylbutan-2-yl)urea]	16.1	99.1
CCN(C(=O)NC1CC(CC(F)(F)F)C1)[C@@H](c1cc(-c2cn3ccnc3c(OC)n2)c(OC)cn1)C(F)(F)F (stereo partly drawn) [Example 2-30, (S)-1-ethyl-1-(2,2,2-trifluoro-1-(5-methoxy-4-(8-methoxyimidazo[1,2-a]pyrazin-6-yl)pyridin-2-yl)ethyl)-3-(3-(2,2,2-trifluoroethyl)cyclobutyl)urea]	34.6	99.0
CCN(C(=O)NC(C1CCC1)C(F)(F)F)[C@@H](c1cc(-c2cn3ccnc3c(OC)n2)c(OC)cn1)C(F)(F)F (stereo partly drawn) [Example 2-5, 3-(1-cyclobutyl-2,2,2-trifluoroethyl)-1-ethyl-1-((S)-2,2,2-trifluoro-1-(5-methoxy-4-(8-methoxyimidazo[1,2-a]pyrazin-6-yl)pyridin-2-yl)ethyl)urea]	10.7	100.7
CCN(C(=O)NC(C)C)[C@@H](c1cc(-c2cn3ccnc3c(OC)n2)c(OC)cn1)C(F)(F)F [Example 2-29, (S)-1-ethyl-3-isopropyl-1-(2,2,2-trifluoro-1-(5-methoxy-4-(8-methoxyimidazo[1,2-a]pyrazin-6-yl)pyridin-2-yl)ethyl)urea]	23.8	96.0
CCN(C(=O)NC(CC1CCCO1)C(F)(F)F)[C@@H](c1cc(-c2cn3cc(C)nc3c(OC)n2)c(OC)cn1)C(F)(F)F (stereo partly drawn) [Example 2-46, 1-ethyl-1-((S)-2,2,2-trifluoro-1-(5-methoxy-4-(8-methoxy-2-methylimidazo[1,2-a]pyrazin-6-yl)pyridin-2-yl)ethyl)-3-(1,1,1-trifluoro-3-(tetrahydrofuran-2-yl)propan-2-yl)urea]	11.7	100.9

Further lines, results first:

EC50 [nM]	% of maximum agonist effect (relative to Orexin A) [%]	SMILES
0.8	101.6	CCN(C(=O)NC(C1CC(F)(F)CCO1)C(F)(F)F)[C@H](C)c1cccc(-c2cn3ccnc3c(OC)n2)c1 (stereo partly drawn) [Example 2-33, 3-(1-(4,4-difluorotetrahydro-2H-pyran-2-yl)-2,2,2-trifluoroethyl)-1-ethyl-1-((R)-1-(3-(8-methoxyimidazo[1,2-a]pyrazin-6-yl)phenyl)ethyl)urea]
6.8	100.1	CCN(C(=O)N[C@@H](C)C(F)(F)F)[C@@H](c1cc(-c2cn3ccnc3c(OC)n2)c(OC)cn1)C(F)(F)F [Example 2-1, 1-ethyl-1-((S)-2,2,2-trifluoro-1-(5-methoxy-4-(8-methoxyimidazo[1,2-a]pyrazin-6-yl)pyridin-2-yl)ethyl)-3-((S)-1,1,1-trifluoropropan-2-yl)urea]
1.9	99.8	CCN(C(=O)NC(CCC(F)(F)F)C1CCO1)[C@@H](c1cc(-c2cn3ccnc3c(OC)n2)c(OC)cn1)C(F)(F)F (stereo partly drawn) [Example 2-45, 1-ethyl-1-((S)-2,2,2-trifluoro-1-(5-methoxy-4-(8-methoxyimidazo[1,2-a]pyrazin-6-yl)pyridin-2-yl)ethyl)-3-(4,4,4-trifluoro-1-(oxetan-2-yl)butyl)urea]
5.8	99.3	CCN(C(=O)N[C@H]1C[C@@]1(C)C(F)(F)F)[C@@H](c1cc(-c2cn3ccnc3c(OC)n2)c(OC)cn1)C(F)(F)F [Example 2-39, 1-ethyl-3-((1S,2R)-2-methyl-2-(trifluoromethyl)cyclopropyl)-1-((S)-2,2,2-trifluoro-1-(5-methoxy-4-(8-methoxyimidazo[1,2-a]pyrazin-6-yl)pyridin-2-yl)ethyl)urea]
0.8	99.6	CC[C@H](CCC(F)(F)F)NC(=O)N(CC)[C@@H](c1cc(-c2cn3ccnc3c(OC)n2)c(OC)cn1)C(F)(F)F [Example 2-21, 1-ethyl-1-((S)-2,2,2-trifluoro-1-(5-methoxy-4-(8-methoxyimidazo[1,2-a]pyrazin-6-yl)pyridin-2-yl)ethyl)-3-((R)-6,6,6-trifluorohexan-3-yl)urea]
0.6	100.1	CCN(C(=O)N[C@@H](CCC(F)(F)F)C(F)(F)F)[C@H](C)c1cc(-c2cc(OC)n3nccc3c2)c(OC)cn1 [Example 11-5, 1-ethyl-3-((S)-1,1,1,5,5,5-hexafluoropentan-2-yl)-1-((R)-1-(5-methoxy-4-(7-methoxypyrazolo[1,5-a]pyridin-5-yl)pyridin-2-yl)ethyl)urea]
